Earlier results, collected in patent US20250302774A1, “LISDEX[…] OROD[…] AND PROCESS FOR PREPARATION THEREOF” (ATHENA PHARM[…], priority 2024, published 2025).
Where two headings read alike, the source gives them in different places.

Assays:
[1] = active substance, exposed to moisture, dimethanesulfonate

**Q.** For `CS(=O)(=O)O.CS(=O)(=O)O.C[C@@H](Cc1ccccc1)NC(=O)[C@@H](N)CCCCN` [Lisdexamfetamine dimesylate, (2S)-2,6-diamino-N-[(1S)-1-methyl-2-phenylethyl]-hexanamide, dimethanesulfonate], which “hygroscopic / deliquescent nature” value [1] is on record?
**A.** highly deliquescent

**Q.** What about the “hygroscopic / deliquescent nature” value ([1]; listed as lisdexamfetamine dimesylate) of the same molecule?
**A.** hygroscopic

**Q.** What about the solubility (in acetone) of the same molecule?
**A.** very slightly soluble

**Q.** What about the solubility (in chloroform) of the same molecule?
**A.** very slightly soluble

**Q.** And the solubility (in ethanol)?
**A.** soluble

**Q.** What about the solubility (in methanol) of the same molecule?
**A.** freely soluble

**Q.** And the solubility (in tetrahydrofuran)?
**A.** practically insoluble

**Q.** What about the solubility (in toluene) of the same molecule?
**A.** very slightly soluble
